Test results: patent US10212937B2, “Microbicidal aqueous solutions including a monochloramine and a peracid, and methods of using the same” (priority 2015, dated 2019)

Assays:
Enterobacter aerogenes = assay: Microbicidal evaluation in nutrient broth, lowest concentration completely preventing growth, Kull synergism calculation; assay type: cell-based; conditions: contact time 15 hours
Method: (§1) Nutrient broth (2.5 g/liter of deionized water) was prepared and dispensed in 5 ml amounts into test tubes and autoclaved for 20 minutes at 121° C. The biocides were added to the test tubes in the desired concentrations, and then 100 microliters of a 24-hour grown suspension of Pseudomonas aeruginosa or Enterobacter aerogenes cells were added to the respective test tubes to give a final count of approximately 10^6 cfu/ml and incubated at 37° C. at the indicated contact times.
(§2) End points for the various mixtures were then compared with the end points for the pure active ingredients alone in concomitantly prepared flasks or test tubes.
(§3) which produced an end point.
(§4) Qb=Lowest concentration of compound B in parts per million, acting alone,
(§5) QA=Lowest concentration of compound A in parts per million, in the mixture,
(§6) QB=Lowest concentration of compound B in parts per million, in the mixture,
(§7) When the sum of QA/Qa and QB/Qb is greater than one, antagonism is indicated. When the sum is equal to one, additivity is indicated. When the sum is less than one, synergism exists.
Contact time was 15 hours. The MCA was obtained by combinations of ammonium sulfate in the form of Oxamine 6150 or Busan 1215 (all from Buckman Laboratories, Memphis, Tenn.) and the oxidant, Bulab 6004 (from Buckman Laboratories). The peracetic acid was from Sigma-Aldrich (32 wt. % in dilute acetic acid) which was diluted in deionized water to desired concentration range prior to adding it to the test systems.

Pseudomonas aeruginosa = assay: as above; assay type: cell-based; conditions: contact time 24 hours, 37° C., approx. 10^6 cfu/ml, complete prevention of growth
Method: as §1, §2, §3, §4, §5, §6, §7
Contact time was 24 hours. The MCA and peracetic acid were obtained in the same manner as Example 1.

[1] = 37° C., approx. 10^6 cfu/ml, complete prevention of growth

Row | Compound | QB/Qb (Enterobacter aerogenes) | Qb, lowest concentration of compound B acting alone which produced an end point (Enterobacter aerogenes; [1]) | Qb, lowest concentration of compound B acting alone which produced an end point (Pseudomonas aeruginosa) | Qa, concentration of compound A acting alone which produced an end point (Enterobacter aerogenes; [1]) | Qa, concentration of compound A acting alone which produced an end point (Pseudomonas aeruginosa)
1 | NCl [monochloramine] | 0.5 | 100 ppm | 50 ppm |  | 
2 | CC(=O)OO [peracetic acid] |  |  |  | 25.0 ppm | 10 ppm
